This test concerns cancer cells. In words: Cancer cell proliferation assay. Format: cell-based. Here is the method:
Percent inhibition of cancer cell migration was performed in a wound healing assay. The percent area that the invading cancer cells occupied, in the presence of a drug candidate compared to the controls, was quantified by Image J cell software which enables cell counting from photographs. IC50's were calculated by performing migration experiments at several compound concentrations and then applying Hill's equation. Inhibition of cancer cell proliferation was quantified by automated cell counting in the presence or absence of a drug candidate. […] The effect of the drug candidates on stem cell pluripotency or proliferation was scored by eye, based on cell morphology and cell density, with 0 being no change in morphology or cell number and 4 being the most profound effect, with the stem cells taking on the morphology of a differentiating cell, along with much fewer cells indicative of inhibition of proliferation. […]
For the cancer cell proliferation experiment cancer cells were plated at constant densities (6000 cells/well) into a 96-well White-walled/Clear-bottom Tissue Culture Treated plate (Corning Incorporated, Big Flats, NY). […] At the 120 hour mark a calcein fluorescence assay (Thermo Fisher Scientific, Waltham, MA) is performed on the plate. Calcein fluorescence (final concentration 0.5 uM) is used to assess cell viability. […]

The results in this text go back to US12630512B2, “Agents for differentiating stem cells and treating cancer” (Minerva Biotechnologies Corporation, priority 2017, dated 2026).

For `CN(C[C@H]1CC[C@H](C(=O)N2CCc3c([nH]c4ccccc34)C2C2CC2)CC1)C(=O)NC(C)(C)C` (some centres unmarked) [MN1413], the “inhibited cancer cell proliferation” value is on record as “about 50%”.

In the case of `C[C@@H]1Cc2c([nH]c3ccccc23)CN1C(=O)C1CCC(CN(C)C(=O)NC(C)(C)C)CC1` (some centres unmarked) [MN1423], the “inhibited cancer cell proliferation” value is reported as 50%.
